The subject of test [1] is LPS-stimulated TNFα release from PBMCs. Briefly: LPS-stimulated PBMC TNFα release assay. The following applies: inhibition of TNFα release, human PBMCs, LPS 10 ng/ml, 18 h, ELISA, read-out: p38α inhibition (IC50 values). It is filed as cell-based. In outline: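 TNFα in supernatants measured by ELISA after 18 h LPS (10 ng/ml) challenge of human PBMCs given 1 h compound pretreatment at 37 °C in medium with 1% FBS. Percent inhibition versus control release fitted to dose-response curves for IC50; at least three independent runs.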

The target in a further test is T1, p38alpha (Homo sapiens, UniProt Q16539).
T1 construct: purchased Invitrogen PV3304
T1 sequence (Q16539 whole entry): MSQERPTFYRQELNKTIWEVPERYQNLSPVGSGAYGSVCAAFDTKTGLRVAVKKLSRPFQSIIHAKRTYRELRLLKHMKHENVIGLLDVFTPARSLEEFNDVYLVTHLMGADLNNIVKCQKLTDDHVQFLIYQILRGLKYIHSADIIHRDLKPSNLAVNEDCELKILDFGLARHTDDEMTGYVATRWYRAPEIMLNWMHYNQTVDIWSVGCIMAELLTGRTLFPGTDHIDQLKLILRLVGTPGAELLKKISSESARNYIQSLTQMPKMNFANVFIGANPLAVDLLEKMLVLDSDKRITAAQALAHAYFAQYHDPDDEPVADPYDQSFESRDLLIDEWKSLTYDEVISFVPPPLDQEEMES
The test can be described thus: P38Alpha enzyme inhibition assay (Alphascreen kinase activity assay). In kind it is biochemical. The following applies: 100 pM p38alpha, 250 μM ATP, 2 hours pre-incubation at 25° C., read-out: p38α inhibition (IC50 values). In outline:
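AlphaScreen read-out: after an EDTA stop, an anti-phospho-ATF2 antibody with Protein A acceptor and donor beads measured substrate phosphorylation. Compounds sat 2 h at 25°C with 100 pM p38α and 0.3 µg/ml ATF-2 fusion protein (pH 7.5, 1% DMSO) before 250 µM ATP was added for 1 h. IC50 from dose-response.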

pIC50: −log10 of the molar value. Structures can show the parent of a compound that is named as a salt.

In the case of `Cc1ccc(-n2nc(C(C)(C)C)cc2NC(=O)N[C@H]2CC[C@@H](Oc3ccc4nnc(N5CC[C@H](CO)C5)n4c3)c3ccccc32)cc1` [Example 92, 1-(5-tert-Butyl-2-p-tolyl-2H-pyrazol-3-yl)-3-{(1S,4R)-4-[3-((S)-3-hydroxymethyl-pyrrolidin-1-yl)-[1,2,4]triazolo[4,3-a]pyridin-6-yloxy]-1,2,3,4-tetrahydro-naphthalen-1-yl}-urea], the pIC50 (in test [1]; at p38alpha) was > 8.00 each time.
`Cc1ccc(-n2nc(C(C)(C)C)cc2NC(=O)N[C@H]2CC[C@@H](Oc3ccc4nnc(N5CC[C@@H](CO)C5)n4c3)c3ccccc32)cc1` [Example 93, 1-(5-tert-Butyl-2-p-tolyl-2H-pyrazol-3-yl)-3-{(1S,4R)-4-[3-((R)-3-hydroxymethyl-pyrrolidin-1-yl)-[1,2,4]triazolo[4,3-a]pyridin-6-yloxy]-1,2,3,4-tetrahydro-naphthalen-1-yl}-urea]: the pIC50 (in test [1]; at p38alpha) was > 8.00 throughout.
As for `Cc1ccc(-n2nc(C(C)(C)C)cc2NC(=O)N[C@H]2CC[C@@H](Oc3ccc4nnc(N5CCN(CCO)CC5)n4c3)c3ccccc32)cc1` [Example 94, 1-(5-tert-Butyl-2-p-tolyl-2H-pyrazol-3-yl)-3-((1S,4R)-4-{3-[4-(2-hydroxy-ethyl)-piperazin-1-yl]-[1,2,4]triazolo[4,3-a]pyridin-6-yloxy}-1,2,3,4-tetrahydro-naphthalen-1-yl)-urea], the results for the pIC50 (in test [1]; at p38alpha) were 7.00 to 8.00 and > 8.00, respectively.
For `C[C@H]1CCCCN1c1nnc2ccc(O[C@@H]3CC[C@H](NC(=O)Nc4cc(C(C)(C)C)nn4-c4cccc(OCCN(C)C)c4)c4ccccc43)cn12` [Example 95] the same measures were > 8.00 and > 8.00.
On to `C[C@@H]1CCC[C@H](C)N1c1nnc2ccc(O[C@@H]3CC[C@H](NC(=O)Nc4cc(C(C)(C)C)nn4-c4cccc(OCCN(C)C)c4)c4ccccc43)cn12` [Example 96, 1-{5-tert-Butyl-2-[3-(2-dimethylamino-ethoxy)-phenyl]-2H-pyrazol-3-yl}-3-{(1S,4R)-4-[3-(cis-2,6-dimethyl-piperidin-1-yl)-[1,2,4]triazolo[4,3-a]pyridin-6-yloxy]-1,2,3,4-tetrahydro-naphthalen-1-yl}-urea formate salt], for which the negative logarithm of the IC50 (pIC50) (in test [1]; on p38alpha) was > 8.00 each time.
`C[C@H]1CCCCN1c1nnc2ccc(O[C@@H]3CC[C@H](NC(=O)Nc4cc(C(C)(C)C)nn4-c4cccc(CN5CCOCC5)c4)c4ccccc43)cn12` [Example 97, 1-[5-tert-Butyl-2-(3-morpholin-4-ylmethyl-phenyl)-2H-pyrazol-3-yl]-3-{(1S,4R)-4-[3-((S)-2-methyl-piperidin-1-yl)-[1,2,4]triazolo[4,3-a]pyridin-6-yloxy]-1,2,3,4-tetrahydro-naphthalen-1-yl}-urea formate salt]: the pIC50 (in test [1]; on p38alpha) was > 8.00 in each case.
Regarding `C[C@H]1CCCCN1c1nnc2ccc(O[C@@H]3CC[C@H](NC(=O)Nc4cc(C(C)(C)C)nn4-c4cccc(CN5CCN(C)CC5)c4)c4ccccc43)cn12` [Example 98, 1-{5-tert-Butyl-2-[3-(4-methyl-piperazin-1-ylmethyl)-phenyl]-2H-pyrazol-3-yl}-3-{(1S,4R)-4-[3-((S)-2-methyl-piperidin-1-yl)-[1,2,4]triazolo[4,3-a]pyridin-6-yloxy]-1,2,3,4-tetrahydro-naphthalen-1-yl}-urea formate salt], the pIC50 (in test [1]; at p38alpha) was > 8.00 each time.
Consider `Cc1ccc(-n2nc(C(C)(C)C)cc2NC(=O)N[C@H]2CC[C@@H](Oc3ccc4nnc(C5(N(C)C)CCCC5)n4c3)c3ccccc32)cc1` [Example 99, 1-(5-tert-Butyl-2-p-tolyl-2H-pyrazol-3-yl)-3-{(1S,4R)-4-[3-(1-dimethylamino-cyclopentyl)-[1,2,4]triazolo[4,3-a]pyridin-6-yloxy]-1,2,3,4-tetrahydro-naphthalen-1-yl}-urea], for which the pIC50 (in test [1]; on p38alpha) was > 8.00 in each case.
As for `Cc1ccc(-n2nc(C(C)(C)C)cc2NC(=O)N[C@H]2CC[C@@H](Oc3ccc4nnc(N5[C@H](C)CCC[C@@H]5C)n4c3)c3ccccc32)cc1` [Example 100, 1-(5-tert-Butyl-2-p-tolyl-2H-pyrazol-3-yl)-3-{(1S,4R)-4-[3-((2S,6R)-2,6-dimethyl-piperidin-1-yl)-[1,2,4]triazolo[4,3-a]pyridin-6-yloxy]-1,2,3,4-tetrahydro-naphthalen-1-yl}-urea], the pIC50 (in test [1]; at p38alpha) was > 8.00 throughout.
In the case of `Cc1ccc(-n2nc(C(C)(C)C)cc2NC(=O)N[C@H]2CC[C@@H](Oc3ccc4nnc(N)n4c3)c3ccccc32)cc1` [Example 101, 1-[(1S,4R)-4-(3-Amino-[1,2,4]triazolo[4,3-a]pyridin-6-yloxy)-1,2,3,4-tetrahydro-naphthalen-1-yl]-3-(5-tert-butyl-2-p-tolyl-2H-pyrazol-3-yl)-urea], the pIC50 (in test [1]; at p38alpha) was > 8.00 in each case.
Consider `Cc1ccc(-n2nc(C(C)(C)C)cc2NC(=O)N[C@H]2CC[C@@H](Oc3ccc4nnc(N5CCCCC5)n4c3)c3ccccc32)cn1` [Example 102, 1-[5-tert-Butyl-2-(6-methyl-pyridin-3-yl)-2H-pyrazol-3-yl]-3-[(1S,4R)-4-(3-piperidin-1-yl-[1,2,4]triazolo[4,3-a]pyridin-6-yloxy)-1,2,3,4-tetrahydro-naphthalen-1-yl]-urea], for which the pIC50 (in test [1]; at p38alpha) was > 8.00 throughout.
For `CC(C)N(c1nnc2ccc(O[C@@H]3CC[C@H](NC(=O)Nc4cc(C(C)(C)C)nn4-c4cccc(OCCN(C)C)c4)c4ccccc43)cn12)C(C)C` [Example 103, 1-{5-tert-Butyl-2-[3-(2-dimethylamino-ethoxy)-phenyl]-2H-pyrazol-3-yl}-3-[(1S,4R)-4-(3-diisopropylamino-[1,2,4]triazolo[4,3-a]pyridin-6-yloxy)-1,2,3,4-tetrahydro-naphthalen-1-yl]-urea], the pIC50 (in test [1]; on p38alpha) was > 8.00 in each case.
For `COc1c(NC(=O)N[C@H]2CC[C@@H](Oc3ccc4nnc(N5CCCCC5)n4c3)c3ccccc32)cc(C(C)(C)C)cc1NS(C)(=O)=O` [Example 104, N-(5-tert-Butyl-2-methoxy-3-{3-[(1S,4R)-4-(3-piperidin-1-yl-[1,2,4]triazolo[4,3-a]pyridin-6-yloxy)-1,2,3,4-tetrahydro-naphthalen-1-yl]-ureido}-phenyl)-methanesulfonamide], the negative logarithm of the IC50 (pIC50) (in test [1]; at p38alpha) was > 8.00 in each case.
For the compound `Cc1ccc(-n2nc(C(C)(C)C)cc2NC(=O)N[C@H]2CC[C@@H](Oc3cc(C)c4nnc([C@@H]5CCCN5C)n4c3)c3ccccc32)cc1` [Example 105, 1-(5-tert-Butyl-2-p-tolyl-2H-pyrazol-3-yl)-3-{(1S,4R)-4-[8-methyl-3-((S)-1-methyl-pyrrolidin-2-yl)-[1,2,4]triazolo[4,3-a]pyridin-6-yloxy]-1,2,3,4-tetrahydro-naphthalen-1-yl}-urea], the pIC50 (in test [1]; on p38alpha) was > 8.00 each time.
On to `CN1CCN(Cc2ccc(-n3nc(C(C)(C)C)cc3NC(=O)N[C@H]3CC[C@@H](Oc4ccc5nnc(N6CCCCC6)n5c4)c4ccccc43)cc2)CC1` [Example 106, 1-{5-tert-Butyl-2-[4-(4-methyl-piperazin-1-ylmethyl)-phenyl]-2H-pyrazol-3-yl}-3-[(1S,4R)-4-(3-piperidin-1-yl-[1,2,4]triazolo[4,3-a]pyridin-6-yloxy)-1,2,3,4-tetrahydro-naphthalen-1-yl]-urea], for which the pIC50 (in test [1]; on p38alpha) was > 8.00 in each case.
Consider `Cn1cc(-n2nc(C(C)(C)C)cc2NC(=O)N[C@H]2CC[C@@H](Oc3ccc4nnc(N5CCCCC5)n4c3)c3ccccc32)cn1` [Example 107, 1-(3-tert-Butyl-1′-methyl-1′H-[1,4′]bipyrazolyl-5-yl)-3-[(1S,4R)-4-(3-piperidin-1-yl-[1,2,4]triazolo[4,3-a]pyridin-6-yloxy)-1,2,3,4-tetrahydro-naphthalen-1-yl]-urea], for which the pIC50 (in test [1]; on p38alpha) was > 8.00 each time.
With `CN(C)CCn1cc(-n2nc(C(C)(C)C)cc2NC(=O)N[C@H]2CC[C@@H](Oc3ccc4nnc(N5CCCCC5)n4c3)c3ccccc32)cn1` [Example 108, 1-[3-tert-Butyl-1′-(2-dimethylamino-ethyl)-1′H-[1,4′]bipyrazolyl-5-yl]-3-[(1S,4R)-4-(3-piperidin-1-yl-[1,2,4]triazolo[4,3-a]pyridin-6-yloxy)-1,2,3,4-tetrahydro-naphthalen-1-yl]-urea], the pIC50 (in test [1]; on p38alpha) was > 8.00 throughout.
For the compound `COc1c(NC(=O)N[C@H]2CC[C@@H](Oc3ccc4nnc([C@@H]5CCCN5C)n4c3)c3ccccc32)cc(C(C)(C)C)cc1NS(C)(=O)=O` [Example 109, N-[5-tert-Butyl-2-methoxy-3-(3-{(1S,4R)-4-[3-((S)-1-methyl-pyrrolidin-2-yl)-[1,2,4]triazolo[4,3-a]pyridin-6-yloxy]-1,2,3,4-tetrahydro-naphthalen-1-yl}-ureido)-phenyl]-methanesulfonamide formate salt], the pIC50 (in test [1]; on p38alpha) was > 8.00 each time.
`C[C@H]1CCCCN1c1nnc2ccc(O[C@@H]3CC[C@H](NC(=O)Nc4cc(C(C)(C)C)nn4CCO)c4ccccc43)cn12` [Example 110, 1-[5-tert-Butyl-2-(2-hydroxy-ethyl)-2H-pyrazol-3-yl]-3-{(1S,4R)-4-[3-((S)-2-methyl-piperidin-1-yl)-[1,2,4]triazolo[4,3-a]pyridin-6-yloxy]-1,2,3,4-tetrahydro-naphthalen-1-yl}-urea]: the pIC50 (in test [1]; at p38alpha) was > 8.00 throughout.

(Values after patent US9315503B2, “Kinase inhibitors” (CHIESI FARMACEUTICI S.p.A., priority 2011, dated 2016).)
